Measured values taken from ChEMBL document CHEMBL4251550, “Applications of parallel synthetic lead hopping and pharmacophore-based virtual screening in the discovery of efficient glycine receptor potentiators” (Eur J Med Chem, 2017).
≈ marks a conversion by molar mass, not a printed value.

Legend:
[1] = Apparent permeability in MDCK cells; type: ADME, cell-based, Canis lupus familiaris; details: dog
[2] = Solubility of compound in FaSSIF; type: physicochemical
[3] = Volume of distribution at steady state in CD1 mouse at 1 mg/kg, iv; type: ADME, organism-based; details: in vivo, read-out: Vdss

Papp [1] [×10⁻⁶ cm/s] | solubility [2] [µM] | Vd [3] [L/kg] | Compound
44 | < 1 |  | CN1C(=O)[C@@H]2CN(S(=O)(=O)c3ccc4c(c3)OCO4)C[C@@H]2c2ccccc21
39 | 96 (≈ 39.4 µg/mL) | 1.4 | COc1ccc(Cl)cc1OC1CN(S(=O)(=O)c2ccc3[nH]c(=O)oc3c2)C1
44 | 102 (≈ 37.1 µg/mL) |  | COc1ccccc1OC1CN(S(=O)(=O)c2ccc3c(c2)OCO3)C1
28 | 17 (≈ 5.94 µg/mL) |  | O=S(=O)(c1ccc2c(c1)OCO2)N1CC[C@@H](c2ccccc2F)C1
